One data set deals with male KM mouse. Description: Acute oral toxicity test. Format: in vivo. The note with it: single oral dose of 3 g/kg, 10 or 11 mice per group. On the procedure:
In this test male KM mouse weighting 18-22 g were used, and 10 or 11 mouse were assigned randomly to each group. […] The animals were fasted for 12 hours before the administration.

The target in data set [1] is T1, PDE5 from human platelets (Homo sapiens, UniProt O76074).
T1 construct: from tissue; host or cells: human platelets
Put plainly: PDE5 inhibitory activity test (scintillation proximity assay). The data set is classed as biochemical. An excerpt:
(§1) The PDE5 and PDE3 were isolated form human platelets, while the PDE6 was isolated form bovine retinas. The enzyme inhibitory activity test conducted immediately after the enzymes had been isolated, using a scintillation proximity assay for the direct detection of AMP/GMP by the TRKQ7100 and TRKQ7090 kit. In summary, the effect of PDE inhibitors was investigated by assaying a fixed amount of enzyme in the presence of varying inhibitor concentrations and low substrate. The final assay volume was made up to 100 μl with 10 μl assay buffer (50 mM Tris/HCl PH 7.5, 8.3 mM MgCl2, 1.7 mM EGTA), and water. Reactions were initiated with enzyme, incubate for 30 minutes at 30° C. and terminated with 50 μl yttrium silicate SPA beads suspension containing zinc sulphate. Shook for 20 minutes and settled for 30 minutes in the dark, then counted on a BECKMAN LS6500 MULTI-PURPOSE SCINTILLATION COUNTER. The IC50 value for the compounds according the present invention was calculated according the counts.
According to the above-mentioned method, the inhibitory activities of some compounds of formula IA and IB according to the invention against PDE5 from human platelets were determined.

In a further data set the target is T2, PDE6 from bovine retina (Bos taurus, UniProt P11541+P23439).
T2 construct: the PDE6 was isolated form bovine retinas; from tissue; host or cells: bovine retina
T2 sequence (P11541 2-856 limits assumed): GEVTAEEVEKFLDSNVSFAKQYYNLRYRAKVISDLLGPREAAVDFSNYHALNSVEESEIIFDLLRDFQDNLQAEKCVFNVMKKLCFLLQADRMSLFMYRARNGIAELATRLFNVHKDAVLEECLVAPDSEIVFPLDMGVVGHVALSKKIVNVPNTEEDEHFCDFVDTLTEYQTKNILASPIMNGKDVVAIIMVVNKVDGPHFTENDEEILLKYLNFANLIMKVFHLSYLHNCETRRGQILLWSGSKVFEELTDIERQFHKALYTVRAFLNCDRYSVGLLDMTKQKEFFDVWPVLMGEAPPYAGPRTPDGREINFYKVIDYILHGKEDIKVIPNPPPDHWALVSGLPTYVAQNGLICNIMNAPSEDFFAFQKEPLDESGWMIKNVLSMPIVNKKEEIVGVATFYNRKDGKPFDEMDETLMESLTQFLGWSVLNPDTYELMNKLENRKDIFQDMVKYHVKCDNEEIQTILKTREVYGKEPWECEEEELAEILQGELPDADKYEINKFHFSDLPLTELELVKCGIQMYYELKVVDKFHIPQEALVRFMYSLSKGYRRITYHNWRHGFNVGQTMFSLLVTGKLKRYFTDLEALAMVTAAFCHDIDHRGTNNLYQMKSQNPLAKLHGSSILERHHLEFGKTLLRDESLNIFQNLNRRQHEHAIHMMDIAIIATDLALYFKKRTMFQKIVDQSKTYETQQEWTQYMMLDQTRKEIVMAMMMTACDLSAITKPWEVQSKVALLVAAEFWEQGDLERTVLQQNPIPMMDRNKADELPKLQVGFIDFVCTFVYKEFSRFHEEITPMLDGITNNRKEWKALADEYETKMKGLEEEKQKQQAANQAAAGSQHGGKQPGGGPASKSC
T2 sequence (P23439 2-850 limits assumed): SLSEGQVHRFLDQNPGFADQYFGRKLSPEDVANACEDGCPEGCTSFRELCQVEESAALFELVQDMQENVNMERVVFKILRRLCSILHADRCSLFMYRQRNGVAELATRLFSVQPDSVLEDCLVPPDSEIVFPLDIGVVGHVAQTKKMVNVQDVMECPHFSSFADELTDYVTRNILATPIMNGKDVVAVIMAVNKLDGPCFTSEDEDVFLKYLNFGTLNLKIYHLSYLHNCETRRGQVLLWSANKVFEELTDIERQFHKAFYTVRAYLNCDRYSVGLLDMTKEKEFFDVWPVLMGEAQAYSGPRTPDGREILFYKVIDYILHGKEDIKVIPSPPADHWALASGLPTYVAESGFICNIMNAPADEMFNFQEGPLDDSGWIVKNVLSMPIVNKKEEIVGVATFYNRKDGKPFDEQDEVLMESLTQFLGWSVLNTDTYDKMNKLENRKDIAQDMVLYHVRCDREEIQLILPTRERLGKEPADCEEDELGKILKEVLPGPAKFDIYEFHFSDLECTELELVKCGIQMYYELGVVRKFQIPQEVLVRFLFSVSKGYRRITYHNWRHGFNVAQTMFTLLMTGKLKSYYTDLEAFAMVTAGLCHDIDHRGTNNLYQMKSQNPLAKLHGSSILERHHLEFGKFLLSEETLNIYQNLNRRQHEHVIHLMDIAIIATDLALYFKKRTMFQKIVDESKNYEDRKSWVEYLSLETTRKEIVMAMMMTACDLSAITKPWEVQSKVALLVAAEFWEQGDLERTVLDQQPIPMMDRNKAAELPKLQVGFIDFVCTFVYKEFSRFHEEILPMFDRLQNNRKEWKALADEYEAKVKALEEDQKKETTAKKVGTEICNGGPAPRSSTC
Put plainly: PDE6 inhibitory activity test (scintillation proximity assay). Format: biochemical. Particulars: for IC50: PDE6 from bovine retina; for PDE6 IC50/PDE5 IC50: selectivity of PDE5 versus PDE6.
Source text: as §1

The next data set deals with rat corpora cavernosa. Description: Pharmacodynamic test: intracavernous pressure on electric stimulation of the cavernous nerve. Format: in vivo. Particulars: anesthetized male SD rats, 5 mg/kg orally, ratio of ICP to MBp. On the procedure: The test was carried out based on the methods reported (International Journal of Impotence Research 2002, 14, 251 and The Journal of Urology 1992, 147, 1124). After fasted for 12 hours, 4 male SD rats were randomized into each group. After anesthetizing the rats with sodium pentobarbital (50 mg/kg, i.p.), the penile skin was incised and the prepuce was degloved to expose completely the corpora cavernosa (CC). A needle linked to an electrophysiology instrument was inserted into the CC on the right side in order to measure the intracavernous pressure (ICP). The right carotid artery was cannulated in a similar manner to the polyethylene tube in order to monitor the mean blood pressure (MBp) continuously. […] Electric stimulation was performed at 2 Hz, for 60 s with a pulse duration of 5 ms and 3V using a stimulator. The compounds were administrated orally (5 mg/kg). The change of the ICP and MBp were monitored continuously before and after the administration. The effect of the compounds on the erection induced by electric stimulation was evaluated by the ratio of ICP to MBp. The parameter (ICP/MBp) was used to estimate the influence of the compounds to the rat corpora cavernosa. […] The statistical significance of the differences between groups was calculated using Duncan's multiple comparison.

For the compound “1-methyl-5-{2-propoxy-5-[[1-ethyl-1-(3-morpholin-1-yl)propyl]amidosulfonyl]phenyl}-3-n-propyl-1,6-dihydro-7H-pyrazolo[4,3-d]pyrimidin-7-one [Example 112]”, in the data set on male KM mouse, the Number of death stood at 2 and the mortality rate turned out to be 20%. Also, half-maximal inhibition in data set [1] (PDE5 from human platelets) (IC50) required 12.1 nM.
Regarding “1-methyl-5-{2-propoxy-5-[bis(2-nicotinoyloxyethyl)amidosulfonyl]phenyl}-3-n-propyl-1,6-dihydro-7H-pyrazolo[4,3-d]pyrimidin-7-one [Example 3]”, the IC50 in data set [1] (PDE5 from human platelets) came out at 0.056 nM; in data set [1] (PDE5 in the PDE6 selectivity table), 0.056 nM; at PDE6 from bovine retina, 32.9 nM. The “PDE6 IC50/PDE5 IC50” value on PDE6 from bovine retina is on record as 588.
In the data set on male KM mouse, “1-methyl-5-{2-propoxy-5-[bis(3-methoxypropyl)amidosulfonyl]phenyl}-3-n-propyl-1,6-dihydro-7H-pyrazolo[4,3-d]pyrimidin-7-one [Example 103]” displayed a Number of death of 0 and a mortality rate of 0%. In data set [1] (PDE5 from human platelets), this compound returned a half-maximal inhibitory concentration (IC50) of 5.61 nM.
`CCCOc1ccc(S(=O)(=O)N(CCOC(C)=O)CCOC(C)=O)cc1-c1nc2c(CCC)nn(C)c2c(=O)[nH]1` [Example 1, 1-methyl-5-{2-propyloxy-5-[bis(2-acetoxyethyl)amidosulfonyl]phenyl}-3-n-propyl-1,6-dihydro-7H-pyrazolo[4,3-d]pyrimidin-7-one] showed a half-maximal inhibitory concentration (IC50) in data set [1] (PDE5 from human platelets) of 0.08 nM. Moreover, on PDE6 from bovine retina, the half-inhibitory concentration (IC50) worked out at 16.8 nM and the “PDE6 IC50/PDE5 IC50” value came out at 210.
Taken in the same sequence, the figures for `CCCOc1ccc(S(=O)(=O)N(CCO)CCO)cc1-c1nc2c(CCC)nn(C)c2c(=O)[nH]1` [Example 2, 1-methyl-5-{2-propyloxy-5-[bis(2-hydroxyethyl)amidosulfonyl]phenyl}-3-n-propyl-1,6-dihydro-7H-pyrazolo[4,3-d]pyrimidin-7-one] were 0.133 nM, 56.5 nM and 425.
As to `CCCc1nn(C)c2c(=O)[nH]c(-c3cc(S(=O)(=O)N(CCOC(C)=O)CCOC(C)=O)ccc3OCC)nc12` [Example 4, 1-methyl-5-{2-ethoxy-5-[bis(2-acetoxyethyl)amidosulfonyl]phenyl}-3-n-propyl-1,6-dihydro-7H-pyrazolo[4,3-d]pyrimidin-7-one], the IC50 in data set [1] (PDE5 from human platelets) came out at 3.37 nM; against PDE6 from bovine retina, 276 nM. The “PDE6 IC50/PDE5 IC50” value at PDE6 from bovine retina came out at 82.1.
Taken in the same sequence, the figures for `CCCc1nn(C)c2c(=O)[nH]c(-c3cc(S(=O)(=O)N(CCOC(=O)c4cccnc4)CCOC(=O)c4cccnc4)ccc3OCC)nc12` [Example 5, 1-methyl-5-{2-ethoxy-5-[bis(2-nicotinoyloxyethyl)amidosulfonyl]phenyl}-3-n-propyl-1,6-dihydro-7H-pyrazolo[4,3-d]pyrimidin-7-one] were 1.08 nM, 131 nM and 131.
Taken in the same sequence, the figures for `CCCOc1ccc(S(=O)(=O)N(CCN2CCOCC2)Cc2ccccc2)cc1-c1nc2c(CCC)nn(C)c2c(=O)[nH]1` [Example 24, 1-methyl-5-{2-propoxy-5-[[1-benzyl-1-(2-morpholin-1-yl)ethyl]amidosulfonyl]phenyl}-3-n-propyl-1,6-dihydro-7H-pyrazolo[4,3-d]pyrimidin-7-one] were 0.087 nM, 5.71 nM and 65.6.
Take `CCCc1nn(C)c2c(=O)[nH]c(-c3cc(S(=O)(=O)N(CCN4CCOCC4)Cc4ccccc4)ccc3OCC)nc12` [Example 25, 1-methyl-5-{2-ethoxy-5-[[1-benzyl-1-(2-morpholin-1-yl)ethyl]amidosulfonyl]phenyl}-3-n-propyl-1,6-dihydro-7H-pyrazolol[4,3-d]pyrimidin-7-one]: the half-maximal inhibitory concentration (IC50) in data set [1] (PDE5 from human platelets) stood at 0.335 nM. On PDE6 from bovine retina, the 50% inhibitory concentration (IC50) was 93.6 nM and the “PDE6 IC50/PDE5 IC50” value is on record as 279.
In turn, `CCCOc1ccc(S(=O)(=O)N(CC)CCN2CCOCC2)cc1-c1nc2c(CCC)nn(C)c2c(=O)[nH]1` [Example 41, 1-methyl-5-{2-propoxy-5-[[1-ethyl-1-(2-morpholin-1-yl)ethyl]amidosulfonyl]phenyl}-3-propyl-1,6-dihydro-7H-pyrazolo[4,3-d]pyrimidin-7-one] had a half-maximal inhibitory concentration (IC50) in data set [1] (PDE5 from human platelets) of 10.5 nM.
For `CCCOc1ccc(S(=O)(=O)N(C)CCN(C)C)cc1-c1cc2c(CCC)nn(C)c2c(=O)[nH]1` [Example 75, 1-methyl-5-{2-propoxy-5-[[1-methyl-1-(2-dimethylamino)]amidosulfonyl]phenyl}-3-n-propyl-1,6-dihydro-7H-pyrazolo[4,3-d]pyrimidin-7-one], the ICP/BP in the data set on rat corpora cavernosa was 74.2 ± 7.8.
As for `CCCOc1ccc(S(=O)(=O)N(C)CCN2CCCCC2)cc1-c1nc2c(CCC)nn(C)c2c(=O)[nH]1` [Example 78, 1-methyl-5-{2-propoxy-5-[[1-methyl-1-(2-piperidin-1-yl)ethyl]amidosulfonyl]phenyl}-3-n-propyl-1,6-dihydro-7H-pyrazolo[4,3-d]pyrimidin-7-one], in the data set on rat corpora cavernosa, the ICP/BP is reported as 71.6 ± 8.3. Besides, the IC50 in data set [1] (PDE5 from human platelets) came to 8.72 nM.
`CCCOc1ccc(S(=O)(=O)N(CCO)CCN2CCOCC2)cc1-c1cc2c(CCC)nn(C)c2c(=O)[nH]1` [Example 95, 1-methyl-5-{2-propoxy-5-[[1-(2-hydroxyethyl)-1-(2-morpholin-1-yl)ethyl]amidosulfonyl]phenyl}-3-n-propyl-1,6-dihydro-7H-pyrazolo[4,3-d]pyrimidin-7-one]: the ICP/BP in the data set with rat corpora cavernosa is 57.2 ± 10.1.
Turning to `CCCc1nn(C)c2c(=O)[nH]c(-c3cc(S(=O)(=O)N4CCN(C)CC4)ccc3OCC)nc12` [sildenafil, Sildenafil, reference compound], the ICP/BP in the data set on rat corpora cavernosa was 80.1 ± 5.1. In the data set with male KM mouse, the Number of death is 6 and the mortality rate is listed as 60%.
